From patent publication US8207172B2 (Bayer Intellectual Property GmbH, priority 2004, dated 2012)
Structures can show the parent of a compound that is named as a salt.

What was measured:
[1] = tested on: BT474 (human breast carcinoma); assay: In vitro tumor cell proliferation assay (Cell Titer-Glo luminescent cell viability), BT474; assay type: cell-based; conditions: BT-474, 72 h, BT474 cells, 72 hours of drug exposure, ATP luminescence readout, read-out: IC50, anti-proliferative activity (inhibition of cell proliferation)
Text: (§1) In vitro Tumor Cell Proliferation Assay
(§2) The tumor cell proliferation assay used to test the compounds of the present invention involves a readout called Cell Titer-Glow® Luminescent Cell Viability Assay developed by Promega® (Cunningham, B A “A Growing Issue: Cell Proliferation Assays, Modern kits ease quantification of cell growth” The Scientist 2001, 15(13), 26, and Crouch, S P et al., “The use of ATP bioluminescence as a measure of cell proliferation and cytotoxicity” Journal of Immunological Methods 1993, 160, 81-88), that measures inhibition of cell proliferation. Generation of a luminescent signal corresponds to the amount of ATP present, which is directly proportional to the number of metabolically active (proliferating) cells.
(§3) A431cells (human epidermoid carcinoma, ATCC […]) and BT474 (human breast carcinoma, ATCC […]) were plated at a density of 2.5×10^3 cells/well in 96 well black-clear bottom tissue culture plates in RPMI media with 10% Fetal Bovine Serum and incubated at 37° C. Twenty-four hours later, test compounds are added at a final concentration range from as high […] to as low 64 pM depend on the activities of the tested compounds in serial dilutions at a final DMSO concentration of 0.1%. Cells were incubated for 72 hours at 37° C. in complete growth media after addition of the test compound. After 72 hours of drug exposure, the plates were equilibrated to room temperature for approximately 30 min. Then, using a Promega Cell Titer Glo Luminescent® assay kit, lysis buffer containing 100 microliters of the enzyme luciferase and its substrate, luciferin mixture, was added to each well. The plates were mixed for 2 min on orbital shaker to ensure cell lysis and incubated for 10 min at room temperature to stabilize luminescence signal. The samples were read on VICTOR 2 using Luminescence protocol, and analyzed with Analyze5 software to generate IC50 values.

[2] = tested on: A431 cells (human epidermoid carcinoma); assay: In vitro tumor cell proliferation assay (Cell Titer-Glo luminescent cell viability), A431; assay type: cell-based; conditions: A-431, 72 h, 72 hours of drug exposure, ATP luminescence readout, read-out: IC50, anti-proliferative activity (inhibition of cell proliferation)
Text: as §1, §2, §3

| IC50 [1] [µM] | IC50 [2] [µM] | SMILES |
| --- | --- | --- |
| ≤ 1 | ≤ 5 | CN(C)C1CCN(C(=O)Cn2ncc3c2CCc2c-3sc3ncnc(Nc4ccc(OCc5cccc(F)c5)c(Cl)c4)c23)C1 (stereo in doubt) [Example 208, N-{3-chloro-4-[(3-fluorobenzyl)oxy]phenyl}-3-{2-[(3S)-3-(dimethylamino)pyrrolidin 1-yl]-2-oxoethyl}-4,5-dihydro-3H-pyrimido[5′,4′:4,5]thieno[2,3-e]indazol-6-amine] |
| ≤ 1 | ≤ 5 | CN(C)C1CCN(C(=O)Cn2ncc3c2CCc2c-3sc3ncnc(Nc4ccc(OCc5cccc(F)c5)c(Cl)c4)c23)C1 (stereo in doubt) [Example 211, N-{3-chloro-4-[(3-fluorobenzyl)oxy]phenyl}-3-{2-[(3R)-3-(dimethylamino)pyrrolidin-1-yl]-2-oxoethyl}-4,5-dihydro-3H-pyrimido[5′,4′:4,5]thieno[2,3-e]indazol-6-amine] |
| ≤ 1 | ≤ 5 | OCCn1cc2c(n1)CCc1c-2sc2ncnc(Nc3ccc(F)c(Cl)c3)c12 [Example 1, 2-{6-[(3-chloro-4-fluorophenyl)amino]-4,5-dihydro-2H-pyrimido[5′,4′:4,5]thieno[2,3-e]indazol-2-yl}ethanol] |
| ≤ 1 | ≤ 5 | CN(C)[C@H]1CCN(CCn2cc3c(n2)CCc2c-3sc3ncnc(Nc4ccc(F)c(Cl)c4)c23)C1 [Example 2, N-(3-chloro-4-fluorophenyl)-2-{2-[(3S)-3-(dimethylamino)pyrrolidin 1-yl]ethyl}-4,5-dihydro-2H-pyrimido[5′,4′:4,5]thieno[2,3-e]indazol-6-amine] |
| ≤ 5 | ≤ 5 | CN(C)[C@@H]1CCN(CCn2cc3c(n2)CCc2c-3sc3ncnc(Nc4ccc(F)c(Cl)c4)c23)C1 [Example 3, N-(3-chloro-4-fluorophenyl)-2-{2-[(3R)-3-(dimethylamino)pyrrolidin-1-yl]ethyl}-4,5-dihydro-2H-pyrimido[5′,4′:4,5]thieno[2,3-e]indazol-6-amine] |
| ≤ 5 | ≤ 5 | COCCNCCn1cc2c(n1)CCc1c-2sc2ncnc(Nc3ccc(F)c(Cl)c3)c12 [Example 4, N-(3-chloro-4-fluorophenyl)-2-{2-[(2-methoxyethyl)amino]ethyl}-4,5-dihydro-2H-pyrimido[5′,4′:4,5]thieno[2,3-e]indazol-6-amine] |
| ≤ 5 | ≤ 5 | Fc1ccc(Nc2ncnc3sc4c(c23)CCc2nn(CCN3CCOCC3)cc2-4)cc1Cl [Example 5, N-(3-chloro-4-fluorophenyl)-2-(2-morpholin-4-ylethyl)-4,5-dihydro-2H-pyrimido[5′,4′:4,5]thieno[2,3-e]indazol-6-amine] |
| ≤ 5 |  | Fc1ccc(Nc2ncnc3sc4c(c23)CCc2nn(CCBr)cc2-4)cc1Cl [Example 6, 2-(2-bromoethyl)-N-(3-chloro-4-fluorophenyl)-4,5-dihydro-2H-pyrimido[5′,4′:4,5]thieno[2,3-e]indazol-6-amine] |
| ≤ 1 | ≤ 5 | Fc1ccc(Nc2ncnc3sc4c(c23)CCc2nn(CCNCCN3CCOCC3)cc2-4)cc1Cl [Example 7, N-(3-chloro-4-fluorophenyl)-2-{2-[(2-morpholin-4-ylethyl)amino]ethyl]-4,5-dihydro-2H-pyrimido[5′,4′:4,5]thieno[2,3-e]indazol-6-amine] |
| ≤ 1 |  | CN(C)[C@H]1CCN(C[C@@H](O)Cn2cc3c(n2)CCc2c-3sc3ncnc(Nc4ccc(OCc5cccc(F)c5)c(Cl)c4)c23)C1 [Example 153, (2R)-1-[6-({3-chloro-4-[(3-fluorobenzyl)oxy]phenyl}amino)-4,5-dihydro-2H-pyrimido[5′,4′:4,5]thieno[2,3-e]indazol-2-yl]-3-[(3S)-3-(dimethylamino)pyrrolidin-1-yl]propan-2-ol trilfluoroacetate (salt)] |
| ≤ 1 |  | O=C(CCl)N1CCC(Cn2cc3c(n2)CCc2c-3sc3ncnc(Nc4ccc(OCc5cccc(F)c5)c(Cl)c4)c23)CC1 [Example 233, 2-{[1-(chloroacetyl)piperidin-4-yl]methyl}-N-{3-chloro-4-[(3-fluorobenzyl)oxy]phenyl}-4,5-dihydro-2H-pyrimido[5′,4′:4,5]thieno[2,3-e]indazol-6-amine trifluoroacetate] |
| ≤ 5 |  | CC(C)(C)OC(=O)N1CCC(CCn2cc3c(n2)CCc2c-3sc3ncnc(Nc4ccc(OCc5cccc(F)c5)c(Cl)c4)c23)CC1 [Example 246, tert-butyl 4-{2-[6-({3-chloro-4-[(3-fluorobenzyl)oxy]phenyl}amino)-4,5-dihydro-2H-pyrimido[5′,4′:4,5]thieno[2,3-e]indazol-2-yl]ethyl}piperidine-1-carboxylate] |
| ≤ 1 |  | Fc1cccc(COc2ccc(Nc3ncnc4sc5c(c34)CCc3nn(CCC4CCNCC4)cc3-5)cc2Cl)c1 [Example 247, N-{3-chloro-4-[(3-fluorobenzyl)oxy]phenyl}-2-(2-piperidin-4-ylethyl)-4,5-dihydro-2H-pyrimido[5′,4′:4,5]thieno[2,3-e]indazol-6-amine] |
| ≤ 1 |  | CS(=O)(=O)OCCn1cc2c(n1)CCc1c-2sc2ncnc(Nc3ccc4c(cnn4Cc4ccccc4)c3)c12 [Example 303, 2-{6-[(1-benzyl-1H-indazol-5-yl)amino]-4,5-dihydro-2H-pyrimido[5′,4′:4,5]thieno[2,3-e]indazol-2-yl}ethyl methanesulfonate] |
| ≤ 1 |  | c1ccc(Cn2ncc3cc(Nc4ncnc5sc6c(c45)CCc4nn(CCN5CCNCC5)cc4-6)ccc32)cc1 [Example 306, N-(1-benzyl-1H-indazol-5-yl)-2-(2-piperazin-1-ylethyl)-4,5-dihydro-2H-pyrimido[5′,4′:4,5]thieno[2,3-e]indazol-6-amine] |
| ≤ 1 |  | CN1CCN(CCn2cc3c(n2)CCc2c-3sc3ncnc(Nc4ccc5c(ccn5Cc5ccccc5)c4)c23)CC1 [Example 337, N-(1-benzyl-1H-indol-5-yl)-2-[2-(4-methylpiperazin-1-yl)ethyl]-4,5-dihydro-2H-pyrimido[5′,4′:4,5]thieno[2,3-e]indazol-6-amine] |
|  | ≤ 5 | OC[C@@H](O)Cn1cc2c(n1)CCc1c-2sc2ncnc(Nc3ccc4c(cnn4Cc4cccc(F)c4)c3)c12 [Example 356, (2S)-3-(6-{[1-(3-fluorobenzyl)-1H-indazol-5-yl]amino}-4,5-dihydro-2H-pyrimido[5′,4′:4,5]thieno[2,3-e]indazol-2-yl)propane-1,2-diol] |
|  | ≤ 5 | OC[C@@H](O)Cn1cc2c(n1)CCc1c-2sc2ncnc(Nc3ccc(OCc4ccccc4)c(Cl)c3)c12 [Example 357, (2S)-3-(6-{[4-(benzyloxy)-3-chlorophenyl]amino}-4,5-dihydro-2H-pyrimido[5′,4′:4,5]thieno[2,3-e]indazol-2-yl)propane-1,2-diol] |
|  | ≤ 5 | OC[C@@H](O)Cn1cc2c(n1)CCc1c-2sc2ncnc(Nc3ccc4c(cnn4Cc4ccccc4)c3)c12 [Example 358, (2S)-3-{6-[(1-benzyl-1H-indazol-5-yl)amino]-4,5-dihydro-2H-pyrimido[5′,4′:4,5]thieno[2,3-e]indazol-2-yl}propane-1,2-diol] |
|  | ≤ 50 | Cc1cccc(COc2ccc(Nc3ncnc4sc5c(c34)CCc3nn(C[C@H](O)CO)cc3-5)cc2Cl)n1 [Example 359, (2S)-3-[6-({3-chloro-4-[(6-methylpyridin-2-yl)methoxy]phenyl}amino)-4,5-dihydro-2H-pyrimido[5′,4′:4,5]thieno[2,3-e]indazol-2-yl]propane-1,2-diol] |
|  | ≤ 5 | OCC(CO)n1cc2c(n1)CCc1c-2sc2ncnc(Nc3ccc(OCc4cccc(F)c4)c(Cl)c3)c12 [Example 360, 2-[6-({3-chloro-4-[(3-fluorobenzyl)oxy]phenyl}amino)-4,5-dihydro-2H-pyrimido[5′,4′:4,5]thieno[2,3-e]indazol-2-yl]propane-1,3-diol] |
|  | ≤ 50 | OCC(CO)n1ncc2c1CCc1c-2sc2ncnc(Nc3ccc(OCc4cccc(F)c4)c(Cl)c3)c12 [Example 361, 2-[6-({3-chloro-4-[(3-fluorobenzyl)oxy]phenyl}amino)-4,5-dihydro-3H-pyrimido[5′,4′:4,5]thieno[2,3-e]indazol-3-yl)propane-1,3-diol] |
|  | ≤ 5 | OCC(CO)n1ncc2c1CCc1c-2sc2ncnc(Nc3ccc4c(cnn4Cc4cccc(F)c4)c3)c12 [Example 362, 2-(6-{[1-(3-fluorobenzyl)-1H-indazol-5-yl]-amino}-4,5-dihydro-3H-pyrimido[5′,4′:4,5]thieno[2,3-e]indazol-3-yl)propane-1,3-diol] |
|  | ≤ 5 | OCC(CO)n1cc2c(n1)CCc1c-2sc2ncnc(Nc3ccc4c(cnn4Cc4cccc(F)c4)c3)c12 [Example 363, 2-(6-{[1-(3-fluorobenzyl)-1H-indazol-5-yl]amino}-4,5-dihydro-2H-pyrimido[5′,4′:4,5]thieno[2,3-e]indazol-2-yl)propane-1,3-diol] |
